Test systems include 786-0 renal; COLO 205 colon; EKVX NSCLC; HCT-116 colon; HOP-62 NSCLC; HT29 colon; K-562 leukemia; M14 melanoma; MALME-3M melanoma; OVCAR-3 ovarian; RXF 393 renal; SF-268 CNS; SK-MEL-28 melanoma; SW-620 colon; U251 CNS; SF-539 CNS.
What all share (experiment): growth of human tumour cells (NCI), 48 h

Each structure is given as a SMILES string.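 Grown in 96-well plates, cells were treated for 48 hours with each compound at five concentrations. Insufficient inhibition: endpoint recorded as highest concentration tested. TGI is the concentration that stops growth completely.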

As to `Cc1nc(Nc2ccc(F)cc2)c2sc(=S)n(-c3ccc(F)cc3)c2n1`, the TGI in the assay with 786-0 renal came to 21.6 µM; in the assay on COLO 205 colon it was 27.5 µM; with EKVX NSCLC, 26.2 µM; in the assay with HCT-116 colon it was 15 µM; with HOP-62 NSCLC it was 24.1 µM; in the assay on HT29 colon, 19.9 µM. The TGI with K-562 leukemia is greater than 100 µM; with M14 melanoma it was 15.5 µM; with MALME-3M melanoma, 28.8 µM; in the assay on OVCAR-3 ovarian it was 30.9 µM; in the assay on RXF 393 renal, 25.1 µM; with SF-268 CNS, 23 µM. The TGI with SK-MEL-28 melanoma is 27.8 µM; in the assay with SW-620 colon, 21.4 µM; with U251 CNS, 27.8 µM.
On to `O=C1NCCCC12CCCNC2=O`, for which the TGI in the assay with 786-0 renal, in the assay with COLO 205 colon, in the assay with EKVX NSCLC, in the assay with HCT-116 colon, in the assay on HOP-62 NSCLC and in the assay on HT29 colon was greater than 100 µM in each case. Besides, the TGI in the assay on K-562 leukemia, in the assay with M14 melanoma, in the assay with MALME-3M melanoma, in the assay on OVCAR-3 ovarian, in the assay with RXF 393 renal and with SF-268 CNS was greater than 100 µM in each case. For the same compound, the TGI in the assay with SF-539 CNS, with SK-MEL-28 melanoma, in the assay with SW-620 colon and with U251 CNS was greater than 100 µM in each case.
`CCN(CC)c1ccc(C2SCC(=O)N2c2ccc(NC(=O)c3ccc(N4C(=O)CSC4c4ccc(N(CC)CC)cc4)cc3)cc2)cc1` (stereo not drawn): the TGI in the assay on 786-0 renal, in the assay on COLO 205 colon, in the assay on EKVX NSCLC, in the assay with HCT-116 colon, with HOP-62 NSCLC and in the assay on HT29 colon was greater than 100 µM throughout. The TGI in the assay with K-562 leukemia, in the assay with M14 melanoma, with MALME-3M melanoma, with OVCAR-3 ovarian, in the assay on RXF 393 renal and in the assay with SF-268 CNS was greater than 100 µM in each case. Besides, the TGI with SF-539 CNS, in the assay with SK-MEL-28 melanoma, with SW-620 colon and in the assay with U251 CNS was greater than 100 µM in each case.
Consider `O=C(Cc1ccccc1)NN1C(=O)C(Cl)C1c1ccc([N+](=O)[O-])cc1` (stereo not drawn), for which the TGI in the assay on 786-0 renal, with COLO 205 colon, in the assay with EKVX NSCLC, in the assay on HCT-116 colon, in the assay on HOP-62 NSCLC and with HT29 colon was greater than 100 µM throughout. Besides, the TGI in the assay on K-562 leukemia, in the assay on M14 melanoma, in the assay on MALME-3M melanoma, in the assay with OVCAR-3 ovarian, in the assay on RXF 393 renal and in the assay with SF-268 CNS was greater than 100 µM in each case. Further, the TGI with SK-MEL-28 melanoma, in the assay on SW-620 colon and with U251 CNS was greater than 100 µM throughout.
In the case of `O=C1C=CC(=O)c2c(NCC3CC3)ccc(NCC3CC3)c21`, the TGI in the assay with 786-0 renal is greater than 100 µM; in the assay with COLO 205 colon, 41.4 µM; in the assay with EKVX NSCLC, greater than 100 µM; in the assay with HCT-116 colon it was greater than 100 µM; with HOP-62 NSCLC, greater than 100 µM; in the assay on HT29 colon, 88.4 µM. For the same compound, the TGI is 53.9 µM in the assay on K-562 leukemia; 56.8 µM in the assay on M14 melanoma; 49.2 µM in the assay with MALME-3M melanoma; 63.4 µM in the assay with OVCAR-3 ovarian; greater than 100 µM in the assay on SF-539 CNS; 99.1 µM in the assay with SK-MEL-28 melanoma. The TGI with SW-620 colon and with U251 CNS was greater than 100 µM throughout.
`Nc1ccc(C(=O)NN2C(=O)C(Cl)C2c2cc(Br)ccc2O)cc1` (stereo not drawn): the TGI in the assay on 786-0 renal was greater than 100 µM; with COLO 205 colon it was greater than 100 µM; with EKVX NSCLC it was greater than 100 µM; in the assay with HCT-116 colon, 32.5 µM; with HOP-62 NSCLC, greater than 100 µM; in the assay on HT29 colon it was greater than 100 µM. The TGI in the assay on K-562 leukemia, in the assay on M14 melanoma, in the assay with MALME-3M melanoma, in the assay on OVCAR-3 ovarian, with SF-268 CNS and in the assay with SF-539 CNS was greater than 100 µM each time. The TGI was greater than 100 µM in the assay on SK-MEL-28 melanoma, greater than 100 µM in the assay on SW-620 colon and 90.3 µM in the assay on U251 CNS.
Take `COP(=O)(OC)C(=NCc1ccccc1)NNc1ccc([N+](=O)[O-])cc1`: the TGI in the assay on 786-0 renal was greater than 100 µM; in the assay on COLO 205 colon, greater than 100 µM; in the assay on HCT-116 colon it was 69 µM; in the assay with HOP-62 NSCLC it was 72.1 µM; in the assay on HT29 colon, greater than 100 µM; in the assay on K-562 leukemia it was greater than 100 µM. In addition, the TGI was 53.7 µM with M14 melanoma; greater than 100 µM in the assay on MALME-3M melanoma; greater than 100 µM in the assay on OVCAR-3 ovarian; 84.9 µM in the assay on SF-268 CNS; 44.7 µM in the assay on SF-539 CNS; greater than 100 µM in the assay with SK-MEL-28 melanoma. Besides, the figures for the TGI in the assay with SW-620 colon and in the assay with U251 CNS were greater than 100 µM and 66.9 µM, respectively.
Regarding `COc1c(OC)c(N)c2cc(C)c(=O)c(C)cc2c1N`, the TGI with 786-0 renal, with COLO 205 colon, with EKVX NSCLC, in the assay on HCT-116 colon, in the assay with HOP-62 NSCLC and in the assay with HT29 colon was greater than 100 µM each time. In addition, the TGI with K-562 leukemia, in the assay with M14 melanoma, with MALME-3M melanoma, with OVCAR-3 ovarian, in the assay with RXF 393 renal and with SF-268 CNS was greater than 100 µM in each case. The TGI in the assay on SF-539 CNS was greater than 100 µM; with SW-620 colon it was 35 µM; with U251 CNS, greater than 100 µM.
As for `COc1cc2nc(-c3cccs3)nc(N3C(c4ccc(O)cc4)=NNC(=O)c4ccccc43)c2cc1OC`, the TGI with 786-0 renal was greater than 100 µM; in the assay with COLO 205 colon it was 52.1 µM; in the assay on EKVX NSCLC, 75.6 µM; in the assay on HCT-116 colon, 86 µM; in the assay on HOP-62 NSCLC, greater than 100 µM; in the assay on HT29 colon, 67.9 µM. Besides, the TGI is greater than 100 µM in the assay with K-562 leukemia; 79.4 µM with M14 melanoma; 43.9 µM in the assay with MALME-3M melanoma; 39.6 µM in the assay with RXF 393 renal; 77.4 µM with SF-268 CNS; 23.6 µM in the assay on SF-539 CNS. The TGI is greater than 100 µM in the assay on SK-MEL-28 melanoma, 79.8 µM in the assay with SW-620 colon and 75.9 µM in the assay with U251 CNS.
Regarding `COc1ccc(-c2cc(-c3ccc(Nc4ccnc5cc(Cl)ccc45)cc3)nc(N)c2C#N)cc1`, the TGI in the assay with 786-0 renal, in the assay on COLO 205 colon, with EKVX NSCLC, in the assay on HCT-116 colon, in the assay with HOP-62 NSCLC and in the assay on K-562 leukemia was greater than 100 µM throughout. Further, the TGI in the assay with M14 melanoma, with MALME-3M melanoma, with OVCAR-3 ovarian, in the assay on RXF 393 renal, in the assay with SF-268 CNS and with SF-539 CNS was greater than 100 µM each time. Further, the TGI in the assay with SK-MEL-28 melanoma, in the assay with SW-620 colon and with U251 CNS was greater than 100 µM throughout.
In the case of `CSc1nc(-c2ccc(C)cc2)c(C#N)c(=O)[nH]1`, the TGI with 786-0 renal, in the assay with COLO 205 colon, in the assay on EKVX NSCLC, with HCT-116 colon, with HOP-62 NSCLC and with HT29 colon was greater than 100 µM throughout. Besides, the TGI in the assay with K-562 leukemia, with M14 melanoma, with OVCAR-3 ovarian, with RXF 393 renal, in the assay on SF-268 CNS and in the assay on SF-539 CNS was greater than 100 µM throughout. In addition, the TGI in the assay on SK-MEL-28 melanoma, in the assay with SW-620 colon and in the assay with U251 CNS was greater than 100 µM each time.
For the compound `CCn1c2ccccc2c2ccc3c(c21)C(=O)c1ccccc1C3=O`, the TGI in the assay on 786-0 renal, in the assay with COLO 205 colon, with EKVX NSCLC, with HCT-116 colon, in the assay with HOP-62 NSCLC and in the assay on HT29 colon was greater than 100 µM in each case. For the same compound, the TGI in the assay with K-562 leukemia, in the assay on M14 melanoma, in the assay with MALME-3M melanoma, in the assay on RXF 393 renal, with SF-268 CNS and in the assay with SF-539 CNS was greater than 100 µM in each case. Moreover, the TGI with SK-MEL-28 melanoma, in the assay on SW-620 colon and in the assay on U251 CNS was greater than 100 µM each time.
With `COc1ccc(N(C)Sc2ccccc2)cc1`, the TGI was 34.9 µM in the assay on 786-0 renal; greater than 100 µM in the assay on COLO 205 colon; greater than 100 µM in the assay with HCT-116 colon; greater than 100 µM with HOP-62 NSCLC; greater than 100 µM in the assay with K-562 leukemia; greater than 100 µM in the assay on M14 melanoma. Also, the TGI is greater than 100 µM with MALME-3M melanoma; greater than 100 µM in the assay with OVCAR-3 ovarian; 53.4 µM in the assay on RXF 393 renal; greater than 100 µM in the assay with SF-268 CNS; 56 µM in the assay on SF-539 CNS; greater than 100 µM in the assay on SK-MEL-28 melanoma. Besides, the TGI with SW-620 colon and in the assay with U251 CNS was greater than 100 µM throughout.
In the case of `COc1cccc(Nc2nc(-c3cccs3)nc3ccc(Br)cc23)c1`, the TGI is greater than 100 µM in the assay on 786-0 renal; greater than 100 µM in the assay on COLO 205 colon; greater than 100 µM with EKVX NSCLC; greater than 100 µM in the assay on HCT-116 colon; 57.9 µM in the assay on HOP-62 NSCLC; greater than 100 µM in the assay on HT29 colon. The TGI in the assay on K-562 leukemia, in the assay on M14 melanoma, with MALME-3M melanoma, in the assay with OVCAR-3 ovarian, in the assay on SF-268 CNS and in the assay with SF-539 CNS was greater than 100 µM in each case. Moreover, the TGI with SW-620 colon and in the assay on U251 CNS was greater than 100 µM throughout.

The record behind these values is PubChem BioAssay (NCI).
